Target: GLP-1 Receptor (Homo sapiens, UniProt P43220)
Experiment: GLP-1R agonist cAMP stimulation assay (HEK293/GLP1R/CRE-LUC cells, cAMP dynamic 2 Kit)
Assay type: cell-based
Conditions: HEK293/CRE-Luc cell line stably expressing the GLP-1 Receptor, 30 min at 37° C.
Outline: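 cAMP measured by HTRF competition (d2-labelled cAMP with cryptate antibody, 1 h, room temperature, protected from light). Before that, GLP1R/CRE-Luc HEK293 cells (1000/well) were exposed for 30 min at 37 °C to half-log compound dilutions in DPBS containing IBMX 0.5 mM and BSA 0.1%.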

GLP-1 Receptor, sequence (P43220 24-463, species assumed): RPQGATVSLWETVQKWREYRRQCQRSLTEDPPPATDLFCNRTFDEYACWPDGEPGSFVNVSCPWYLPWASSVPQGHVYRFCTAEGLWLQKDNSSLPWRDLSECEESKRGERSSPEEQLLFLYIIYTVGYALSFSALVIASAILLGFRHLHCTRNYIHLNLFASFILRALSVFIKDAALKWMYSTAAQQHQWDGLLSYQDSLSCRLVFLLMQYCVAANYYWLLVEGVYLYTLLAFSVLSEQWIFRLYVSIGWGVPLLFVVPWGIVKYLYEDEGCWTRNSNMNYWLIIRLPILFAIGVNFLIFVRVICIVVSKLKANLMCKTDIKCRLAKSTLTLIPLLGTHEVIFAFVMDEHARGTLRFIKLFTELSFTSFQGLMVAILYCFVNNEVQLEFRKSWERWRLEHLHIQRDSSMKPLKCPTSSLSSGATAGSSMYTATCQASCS

SMILES	EC50
O=C(Nc1ccc2c(c1)nc(CN1CCC(c3cccc(OCc4ccc(Cl)cc4F)n3)CC1)n2C[C@@H]1CCO1)C1COCCO1 (stereo partly drawn) [Compound 172a, N-{2-[(4-{6-[(4-chloro-2-fluorophenyl)methoxy]pyridin-2-yl}piperidin-1-yl)methyl]-1-{[(2S)-oxetan-2-yl]methyl}-1H-1,3-benzodiazol-5-yl}-1,4-dioxane-2-carboxamide]	0.31 nM
Fc1cc(Cl)ccc1COc1nc(C2CCN(Cc3nc4cc(-c5nnc(C(F)(F)F)[nH]5)nnc4n3C[C@@H]3CCO3)CC2)ccc1F [Compound 488a, 2-[(4-chloro-2-fluorophenyl)methoxy]-3-fluoro-6-{1-[(7-{[(2S)-oxetan-2-yl]methyl}-3-[5-(trifluoromethyl)-4H-1,2,4-triazol-3-yl]-7H-imidazo[4,5-c]pyridazin-6-yl)methyl]piperidin-4-yl}pyridine]	0.054 nM
N#Cc1ccc(COc2nccc(C3CCN(Cc4nc5cc(-c6nnc(C(F)(F)F)[nH]6)ncc5n4C[C@@H]4CCO4)CC3)n2)c(F)c1 [Compound 507a, 3-fluoro-4-{[(4-{1-[(3-{[(2S)-oxetan-2-yl]methyl}-6-[5-(trifluoromethyl)-4H-1,2,4-triazol-3-yl]-3H-imidazo[4,5-c]pyridin-2-yl)methyl]piperidin-4-yl}pyrimidin-2-yl)oxy]methyl}benzonitrile]	0.068 nM
Fc1cc(Cl)ccc1COc1cccc(C2CCN(Cc3nc4cc(-c5cn(C6CCCOC6)nn5)ccc4n3C[C@@H]3CCO3)CC2)n1 (stereo partly drawn) [Compound 209a, 2-[(4-{6-[(4-chloro-2-fluorophenyl)methoxy]pyridin-2-yl}piperidin-1-yl)methyl]-5-[1-(oxan-3-yl)-1H-1,2,3-triazol-4-yl]-1-{[(2S)-oxetan-2-yl]methyl}-1H-1,3-benzodiazole]	3.2 nM
Fc1cc(Cl)ccc1COc1ncc(F)c(C2=CCC(Cc3nc4cc(-c5nnn[nH]5)ccc4n3C[C@@H]3CCO3)CC2)n1 (stereo partly drawn) [Compound 241a, 2-((4-(2-((4-chloro-2-fluorobenzyl)oxy)-5-fluoropyrimidin-4-yl)cyclohex-3-en-1-yl)methyl)-1-(((S)-oxetan-2-yl)methyl)-5-(1H-tetrazol-5-yl)-1H-benzo[d]imidazole]	0.32 nM
C[C@]1(c2ccc(Cl)cn2)Oc2cccc(C3CCN(Cc4nc5cc(-c6nnn[nH]6)nnc5n4C[C@@H]4CCO4)CC3)c2O1 [Compound 461a, 5-chloro-2-[(2S)-2-methyl-4-{1-[(7-{[(2S)-oxetan-2-yl]methyl}-3-(1H-1,2,3,4-tetrazol-5-yl)-7H-imidazo[4,5-c]pyridazin-6-yl)methyl]piperidin-4-yl}-2H-1,3-benzodioxol-2-yl]pyridine]	0.23 nM
COCCn1c(CN2CCC(c3cccc4c3OC(C)(c3ccc(Cl)cc3F)O4)CC2)nc2cc(-c3nnc(C(F)(F)F)[nH]3)cnc21 (stereo not shown) [Compound 402, 4-[2-(4-chloro-2-fluorophenyl)-2-methyl-2H-1,3-benzodioxol-4-yl]-1-{[3-(2-methoxyethyl)-6-[5-(trifluoromethyl)-4H-1,2,4-triazol-3-yl]-3H-imidazo[4,5-b]pyridin-2-yl]methyl}piperidine]	0.75 nM
CO[C@H](C)Cn1c(CN2CCC(c3cccc4c3O[C@@](C)(c3ccc(C#N)cc3F)O4)CC2)nc2cc(-c3nnc(C(F)(F)F)[nH]3)ncc21 [Compound 442a, 3-fluoro-4-[(2S)-4-[1-({3-[(2R)-2-methoxypropyl]-6-[5-(trifluoromethyl)-4H-1,2,4-triazol-3-yl]-3H-imidazo[4,5-c]pyridin-2-yl}methyl)piperidin-4-yl]-2-methyl-2H-1,3-benzodioxol-2-yl]benzonitrile]	0.033 nM
C[C@]1(c2ccc(Cl)cn2)Oc2cccc(C3CCN(Cc4nc5cc(-c6nnn[nH]6)cnc5n4C[C@@H]4CCO4)CC3)c2O1 [Compound 451a, 5-chloro-2-[(2S)-2-methyl-4-{1-[(3-{[(2S)-oxetan-2-yl]methyl}-6-(1H-1,2,3,4-tetrazol-5-yl)-3H-imidazo[4,5-b]pyridin-2-yl)methyl]piperidin-4-yl}-2H-1,3-benzodioxol-2-yl]pyridine]	0.21 nM
Fc1cc(Cl)ccc1COc1cc(C2CCN(Cc3nc4cc(-c5nnc(C(F)(F)F)[nH]5)ncc4n3C[C@@H]3CCO3)CC2F)ccc1F (stereo partly drawn) [Compound 478a, (3,4-trans)-4-{3-[(4-chloro-2-fluorophenyl)methoxy]-4-fluorophenyl}-3-fluoro-1-[(3-{[(2S)-oxetan-2-yl]methyl}-6-[5-(trifluoromethyl)-4H-1,2,4-triazol-3-yl]-3H-imidazo[4,5-c]pyridin-2-yl)methyl]piperidine]	0.1 nM
CC1(c2ccc(Cl)cc2)Oc2cccc(C3=CCN(Cc4nc5cc(-c6nnc(C(F)(F)F)[nH]6)ccc5n4C[C@@H]4CCO4)CC3)c2O1 (stereo partly drawn) [Compound 255a, 2-({4-[2-(4-chlorophenyl)-2-methyl-2H-1,3-benzodioxol-4-yl]-1,2,3,6-tetrahydropyridin-1-yl}methyl)-1-{[(2S)-oxetan-2-yl]methyl}-5-[5-(trifluoromethyl)-4H-1,2,4-triazol-3-yl]-1H-1,3-benzodiazole]	0.24 nM
CC1(c2ccc(Cl)cc2F)Oc2cccc(C3CCN(Cc4nc5cc(-c6nnn[nH]6)c(F)cc5n4C[C@@H]4CCO4)CC3)c2O1 (stereo partly drawn) [Compound 223a, 2-({4-[2-(4-chloro-2-fluorophenyl)-2-methyl-2H-1,3-benzodioxol-4-yl]piperidin-1-yl}methyl)-6-fluoro-1-{[(2S)-oxetan-2-yl]methyl}-5-(1H-1,2,3,4-tetrazol-5-yl)-1H-1,3-benzodiazole]	0.12 nM
CCC(=O)Nc1ccc2c(c1)nc(CN1CCC(c3cccc(OCc4ccc(Cl)cc4F)n3)CC1)n2C[C@@H]1CCO1 [Compound 102a, (S)—N-(2-((4-(6-((4-chloro-2-fluorobenzyl)oxy)pyridin-2-yl)piperidin-1-yl)methyl)-1-(oxetan-2-ylmethyl)-1H-benzo[d]imidazol-5-yl)propionamide]	0.539 nM
Fc1cc(Cl)ccc1COc1cc(C2CCN(Cc3nc4cc(-c5nnc(C(F)(F)F)[nH]5)ncc4n3C[C@@H]3CCO3)CC2)ccc1F [Compound 470a, 4-{3-[(4-chloro-2-fluorophenyl)methoxy]-4-fluorophenyl}-1-[(3-{[(2S)-oxetan-2-yl]methyl}-6-[5-(trifluoromethyl)-4H-1,2,4-triazol-3-yl]-3H-imidazo[4,5-c]pyridin-2-yl)methyl]piperidine]	0.22 nM
CC1(c2ccc(Cl)cc2F)Oc2cccc(C3CCN(Cc4nc5cc(-c6nnc(C(F)(F)F)[nH]6)c(F)cc5n4C[C@@H]4CCO4)CC3)c2O1 (stereo partly drawn) [Compound 248a, 2-({4-[2-(4-chloro-2-fluorophenyl)-2-methyl-2H-1,3-benzodioxol-4-yl]piperidin-1-yl}methyl)-6-fluoro-1-{[(2S)-oxetan-2-yl]methyl}-5-[5-(trifluoromethyl)-4H-1,2,4-triazol-3-yl]-1H-1,3-benzodiazole]	0.11 nM
CC1(c2ccc(Cl)cn2)Oc2cccc(C3CCN(Cc4nc5cc(-c6noc(=O)[nH]6)ncc5n4C[C@@H]4CCO4)CC3)c2O1 (stereo partly drawn) [Compound 343a, 3-[2-({4-[2-(5-chloropyridin-2-yl)-2-methyl-2H-1,3-benzodioxol-4-yl]piperidin-1-yl}methyl)-3-{[(2S)-oxetan-2-yl]methyl}-3H-imidazo[4,5-c]pyridin-6-yl]-4,5-dihydro-1,2,4-oxadiazol-5-one]	0.079 nM

— patent publication US20230391760A1, “HETEROCYCLIC GLP-1 AGONISTS” (Gasherbrum Bio, Inc., priority 2020, published 2023)
